The numbers were not newly measured in patent publication US20240415845A1, “Compositions of Iboga Alkaloids and Methods of Treatment” (priority 2022, published 2024), which cites them from elsewhere.

One may read the half-life as the time needed for the level to fall by half in the phase considered.

For this data set the following is noted: in vivo; cited from earlier work.

The structures appear in SMILES notation.

On to `CC[C@H]1CC2C[C@H]3c4[nH]c5ccc(O)cc5c4CCN(C2)C13` [noribogaine, Noribogaine], for which the half-life was 28 to 49 h.
